Legend:
fructose-fed rats [1] = assay: Treatment of fructose-induced hyperuricemia with allopurinol; format: in vivo, rat; conditions: for body weight: treatment study, p=NS
Excerpt: Treatment of fructose-induced hyperuricemia with allopurinol: Male Sprague-Dawley rats (150-200 g) were housed in standard conditions and fed control (n=7) or 60% fructose diet (Harlan, Madison, Wis., n=14) for 10 weeks. “Control diet” contains 46% carbohydrate, which is mainly composed of starch whereas the fructose diet contained 60% fructose as the carbohydrate. The caloric content of these diets are 3.1 kcal/g and 3.6 kcal/g, respectively. At 4 weeks, blood sample were obtained at 11 am in the morning after 4 h fasting. Half of the fructose-fed rats were administered allopurinol (AP, 150 mg/L in the drinking water) (Sigma, St. Louis, Mo.) for an additional 6 weeks to lower serum uric acid. Fresh drinking water containing allopurinol was replaced every 2 days. Rats were divided into 3 groups: Control; Fructose (Fr); and Fr+AP. At 10 weeks an oral glucose tolerance test was performed, in which rats were fasted overnight (16 hours), and then administered 1.5 g/kg OGTT (50% glucose solution) by gavage. Blood was sampled at 0, 30, 60, 120 min for blood glucose and serum insulin measurement. Rats were then sacrificed.
(§1) Measurements: Systolic blood pressure was assessed as the mean value of 3 consecutive measurements obtained in the morning using a tail-cuff sphygmomanometer (Visitech BP2000, Visitech Systems, Inc., Apex, N.C.). All animals were preconditioned for blood pressure measurements 1 wk before each experiment. Serum uric acid was measured by uricase method. Blood glucose was measured with the ONE TOUCH system (Johnson&Johnson, Milpitas, Calif.). Rat insulin was measured by ELISA (Crystal Chem. Inc., Chicago, Ill.). Insulin sensitivity index was calculated using the formula of Matsuda and DeFronzo (10,000/square root of [fasting glucose×fasting insulin]×[mean glucose×mean insulin during OGTT]), which is highly correlated (r=0.73, p<0.0001) with rate of whole-body glucose disposal during the euglycemic insulin clamp (Matsuda M and DeFronzo R A, Insulin sensitivity indices obtained from oral glucose tolerance testing: comparison with the euglycemic insulin clamp, Diabetes Care 22: 1462-1470, 1999). Serum lipids were measured with an autoanalyzer (VETAce, Alfa Wassermann Inc, West Caldwell, N.J.) or Triglyceride-SL assay kit (Diagnostic chemicals Limited, Charlottetown, PE, Canada).
(§2) Statistical analysis. All values presented are expressed as mean±SD and analyzed by one-way analysis of variance (ANOVA) or by unpaired Student's t test. Significance was defined as p<0.05.

fructose-fed rats [2] = assay: Prevention of fructose-induced hyperuricemia with allopurinol; format: in vivo, rat
Experimental: […] Three groups (control, Fr, and Fr+AP; n=8 each) were designed for this prevention study. Body weight was measured every 2 weeks. Food consumption was measured for 3 days at 8 weeks.
as §1, §2

Male Sprague-Dawley rats = assay: Oxonic acid-induced hyperuricemia in rats, serum uric acid, NOx and blood pressure; format: in vivo, rat
Experimental: Male Sprague-Dawley rats were housed in standard conditions and fed normal diets. Hyperuricemia was induced with an uricase inhibitor, oxonic acid (OA; 750 mg/kg/day), by gavage, with control rats receiving vehicle. Allopurinol (AP) was used to block hyperuricemia by placing AP in the drinking water (150 mg/L). Rats were divided into four groups: (1) Control, (2) AP only, (3) OA only, and (4) OA+AP. Systolic blood pressure was measured using a tail-cuff sphygmomanometer. The amount of drinking water consumed and changes in body weight were noted. Rats were sacrificed at one and seven days. Serum was analyzed for uric acid concentration and nitrites/nitrates (NOx) by chemiluminescence method. (Prabhakar SS: Inhibition of mesangial iNOS by reduced extracellular pH is associated with uncoupling of NADPH oxidation. Kidney Int 61:2015-2024, 2002). Statistical analysis between subgroups was performed using ANOVA.

fructose fed rats = assay: 60% dextrose vs 60% fructose diet, pair-fed, lowering uric acid with benzbromarone; format: in vivo, rat; conditions: 4 weeks
Experimental: Comparison between 60% dextrose and 60% fructose on the development of metabolic syndrome and the effect of lowering uric acid with Benzbromarone: Rats were pair-fed with 60% dextrose diet or 60% fructose diet for 4 weeks, which are isocaloric. […] At 4 weeks, total food intake per animal was calculated from the food left over. Total food intake is the subtraction of the left-over food from total administered food (1425 g/rat/28days). In addition to the above two groups, a third group of fructose fed rats were administered BZ. Body weight was measured weekly. At 4 weeks, after 5 h fasting, insulin, triglyceride and uric acid were measured. All protocols were approved by the Animal Care Committee of the University of Florida.
as §1

[3] = test system: cultured bovine endothelial cells; conditions: cited from earlier work
endothelial function = conditions: infusion into forearm vein, immediately after infusion; cited from earlier work
[4] = test system: Rat Aortic Artery (AA) segments; assay: Acetylcholine-induced vasorelaxation of rat aortic artery segments; conditions: uric acid 0-15 mg/dl; acetylcholine 5 μM; U-46619 0.5 μM
Experimental: Vasorelaxation of rat Aortic Artery (AA) segments: Rat AA segments (1-0.5 mm diameter×3-4 mm length) were isolated from the 2- to 3- month-old rats, AA segments were suspended in individual organ chambers (Radnoti Four-Unit Tissue Bath System) with 5 ml in Earl's solution, oxygenated with 95% O2 and 5% CO2 at 37° C. After 1 hr equilibration of resting force of 1.5 g, vascular smooth muscle cell or endothelium integrity in this AA segment was confirmed by monitoring 0.5 μM U-46619 (a thromboxane A2 mimetic, sigma)-mediated AA contraction or acetylcholine (5 μM)-mediated vasodilation, respectively. After washing several times, the segments were incubated with various concentration of uric acid (0-15 mg/dl ) in organ bath chamber for 30 min. Stable construction was induced by 0.5 μM U-46619 for 10 min prior to acetylcholine-induced vasorelaxation. The vascular tensions were continuously monitored with an isometric force transducer (Harvard Apparatus, Holliston, Mass.). To standardize the data, U-46619-induced stable increase in vascular tone was set as 100%.

[5] = test system: diabetic C57BL6 and eNOS KO mice; assay: Streptozotocin diabetic C57BL6 and eNOS KO mice with insulin treatment; format: in vivo, mouse
Experimental: Experiments were performed following protocol approval by the Animal Care and Use Committee of the University of Florida (IACUC). C57B1/6J mice (C57BL6) and C57BL/6JNos3tm1Unc (eNOS KO mice) (Jackson Laboratory, Bar Harbor, Me.) aged 8 weeks were rendered diabetic with intraperitoneal injections of streptozotocin (STZ) (100 mg/kg/day for 2 consecutive days) freshly dissolved in 0.1M citrate buffer (pH 4.5). Development of diabetes (defined by blood glucose greater than 250 mg/dL) was verified 1 week after the first STZ injection with ONE TOUCH system (Johnson & Johnson, Milpitas, Calif.). For blood sugar control, a single insulin pellet (Linshin Canada Inc, Ontario, Canada) was implanted subcutaneously for 5 months. Blood glucose was monitored every 2 weeks and if the fasting blood glucose was >200 mg/dl, an additional insulin pellet was inserted. Mice were housed in the animal care facility with 12-hour light/dark cycle and allowed free access to food and water. Body weight was recorded monthly. At 3 and 5 months, mice were euthanized for histological analysis. A total of 6 groups were examined with 10 mice for each group at starting points. Non-diabetic (non-DM), diabetic (DM), and diabetic mice (C57BL6 and eNOS KO) with insulin treatment (DMIns) were examined. Systolic blood pressure was assessed as the mean value of 5-10 consecutive measurements obtained in the morning using a tail-cuff sphygmomanometer (Visitech BP2000, Visitech Systems, Inc., Apex, N.C.). BUN was measured by BUN assay (Diagnostic chemicals limited, PE, Canada). Urine in bladder was obtained for urinary albumin excretion at sacrifice. Albumin-to-Creatinine ratio was measured with Albuwell M (Exocell Inc., Philadelphia, Pa.) and Liquid Creatinine Assay (Bioquant, San Diego, Calif.), respectively.
Kidneys were fixed in Fekete's fixative (mixture of ethanol, distilled water, 37% formalin and glacial acetic acid), and embedded in paraffin. 2-μm sections were stained with the periodic acid-Schiff reagent (PAS) or the periodic acid-methenamine silver (PAM) and counterstained with hematoxylin. Indirect immunoperoxidase staining was performed using antibodies to the endothelial antigen, thrombomodulin (TM) (Yuzawa Y, Brentjens J R, Brett J, Caldwell P R, Esposito C, Fukatsu A, Godman G, Stern D, Andres G: Antibody-mediated redistribution and shedding of endothelial antigens in the rabbit. J Immunol 150: 5633-5646, 1993) or CD34 (BD Pharmingen, San Jose, Calif.) (Fina L, Molgaard H V, Robertson D, Bradley N J, Monaghan P, Delia D, Sutherland D R, Baker M A, Greaves M F: Expression of the CD34 gene in vascular endothelial cells. Blood 75: 2417-2426, 1990), and to vascular smooth muscle cells with anti-smooth muscle actin (Abcam, Cambridge, Mass.). To detect endothelial cell proliferation, double immunostaining was performed with an antibody to the […], Ki67 (Abcam, Cambridge, Mass.) and thrombomodulin. Color was developed using DAB as a chromogen. In double staining, Bjoran Purple (BioCare Medical, Concord, Calif.) was used for thrombomodulin.
All quantifications were performed in a blinded fashion. Using coronal sections of the kidney, all glomeruli (100-200 of glomeruli per each animal) were examined. Glomerular mesangial expansion, mesangiolysis, and nodular lesions were evaluated. The percentage of mesangiolysis was calculated as the number of glomeruli with mesangiolysis divided by that of total glomeruli. Arteriolar morphology was assessed by indirect peroxidase immunostaining for alpha-smooth muscle actin. […] Afferent arteriolar wall thickness was measured by computer image analysis. For each arteriole, the outline of the vessel and its internal lumen (excluding the endothelium) were generated by using computer analysis to calculate the total wall area (outline-inline) in a minimum of 12 arterioles. Vessels that were cross-sectioned or not sectioned transversally, providing an asymmetrical wall, were excluded from the present study. […]

[6] = wildtype and eNOS knockout mice

O=C(CO)[C@@H](O)[C@H](O)[C@H](O)CO [Fr, fructose]
body weight (fructose-fed rats [1]; 10 weeks): 522 ± 57 g
final weight (fructose-fed rats [2]; prevention study, 8 weeks): 456 ± 24 g

Oc1ncnc2[nH]ncc12 [Allopurinol, allopurinol]
serum uric acid (fructose-fed rats [1]; AP 150 mg/L drinking water for 6 weeks from week 4 of fructose diet): effective at lowering uric acid
insulin sensitivity (index) (fructose-fed rats [1]; OGTT at 10 weeks): improved insulin sensitivity
hypertriglyceridemia (serum triglycerides) (fructose-fed rats [1]; fructose-fed rats): abolished
urinary excretion of uric acid (fructose-fed rats [1]; fructose-fed rats, 9 weeks): prevented the reduced excretion of uric acid
fasting hyperinsulinemia (fructose-fed rats [1]; fructose-fed rats, 10 weeks): reversed
systolic blood pressure (fructose-fed rats [1]; fructose-fed rats, remained higher than control): significantly reduced
postprandial hyperinsulinemia (fructose-fed rats [1]; oral glucose tolerance test at 10 weeks): partially but significantly lower
body weight (fructose-fed rats [1]; 10 weeks): 474 ± 37 g
systolic blood pressure (Male Sprague-Dawley rats; 7 days, OA vs OA/AP, p=NS): 147±11 mm Hg
change in NOx concentration (Male Sprague-Dawley rats; rats treated with AP alone): did not show a significant change
change in serum UA (Male Sprague-Dawley rats; rats treated with AP alone): did not show a significant change
elevation of uric acid by fructose diet (fructose-fed rats [2]; allopurinol given simultaneously with fructose diet, over the 6 week period): prevented
fasting insulin levels (fructose-fed rats [2]; compared to fructose-fed rats, 8 weeks): significantly lower
development of hypertriglyceridemia (fructose-fed rats [2]; prevention study): completely prevented
final weight (fructose-fed rats [2]; prevention study, 8 weeks): 426 ± 26 g

CCc1oc2ccccc2c1C(=O)c1cc(Br)c(O)c(Br)c1 [benzbromarone, Benzbromarone]
hyperinsulinemia (fructose fed rats): significantly improved
hypertriglyceridemia (fructose fed rats): significantly improved
hyperuricemia (fructose fed rats): significantly improved

O=c1[nH]c(=O)c2[nH]c(=O)[nH]c2[nH]1 [uric acid]
NO levels [3]: potently reduce NO levels
endothelial function measured by brachial artery reactivity (endothelial function): does not impair endothelial function
vasorelaxation of aortic arterial rings in response to acetylcholine [4]: dose-dependently blocked

insulin
development of mesangial expansion ([5]; 3 and 5 months): blocked
development of mesangiolysis ([5]; 3 and 5 months): blocked
development of the nodular lesions ([5]; 3 and 5 months): blocked
blood glucose levels ([5]; both wildtype and eNOS knockout mice): significant improvements
up-regulation of VEGF mRNA expression ([5]; diabetic C57BL6 and eNOS KO mice, whole kidney): blocked
increase in inner lumen size of afferent arteriole ([5]; diabetic eNOS KO mice): blocked
increase in endothelial cell proliferation and number ([5]; diabetic mice, renal cortex): largely corrected
blood pressure ([5]; eNOS knockout mice): significantly improved
survival ([5]; eNOS knockout mice, 5 months): significantly improved
development of proteinuria [5, 6]: prevented
development of renal dysfunction [5, 6]: prevented
development of renal hypertrophy [5, 6]: prevented

O=C(O)c1nc(=O)[nH]c(=O)[nH]1 [OA, oxonic acid]
reduction of serum NOx in hyperuricemic rats (Male Sprague-Dawley rats; at both 1 day and 7 days, vs control): 40-50%

— patent US9155740B2, “Compositions and methods for treatment and prevention of hyperuricemia related health consequences” (priority 2004, dated 2015)
